Tests used:
[1] = tested on: P388 murine leukemia cell line; assay: Identification of cytotoxic agents: P388 cell viability (ATP-Lite); assay type: cell-based; details: Mus musculus; P388 cells, 72 hours, intracellular ATP (ATP-Lite), concentration required to inhibit growth by 50%
Method: A P388 murine leukemia cell line was obtained from NCI, Frederick, Md. P388 cells were cultured in RPMI-1640 supplemented with 10% fetal bovine serum, 2 mM Glutamax, 1 mM sodium pyruvate, 0.1 mM non-essential amino acids and 10 mM HEPES. Cells were grown at 37° C. in a humidified 5% CO2 atmosphere. Exponentially growing P388 cells were plated at 5,000 cells/well in a 96-well flat-bottomed microtiter plate (Corning, Costar #3595). […] Cellular viability was determined 72 hours later by measuring intracellular ATP with ATP-Lite assay system. The effect of compounds on cell viability was calculated by comparing the ATP levels of cells exposed to test compound with those of cells exposed to DMSO. A semi-log plot of relative ATP levels versus compound concentration was used to calculate the compound concentration required to inhibit growth by 50% (IC50). Data was analyzed by Prism software (GraphPad; San Diego, Calif.) by fitting it to a sigmoidal dose response curve.

[2] = tested on: P388/ADR cell lines (overexpress multidrug resistance pump MDR-1); assay: Multidrug resistant cell assay: P388/ADR cell viability (ATP-lite); assay type: cell-based; details: Mus musculus, P388/ADR cells overexpressing MDR-1 (Pgp-1), 72 hours
From the text: Cytotoxicity of compounds in multidrug resistant cells can be determined by administering compounds to cell lines that overexpress the multidrug resistance pump MDR-1 and determining the viability of the cell lines. P388/ADR cell lines are known to overexpress the multidrug resistance pump MDR-1 (also known as P-glycoprotein-1; Pgp-1).
P388/ADR cell lines are obtained from American Type Culture Collection (Manassas, Va.) and maintained in RPMI-1640 media supplemented with 10% FCS, 10 units/ml penicillin and streptomycin, 2 mM Glutamax and 1 mM sodium pyruvate (Invitrogen Corporation, Carlsbad, Calif.). For compound testing, cells are plated in 96 well dishes at a concentration of 1.5×10^4 cells/well. Cells are allowed to adhere to the plate overnight and then incubated with compounds at final concentrations ranging from 0.13 nM to 10 uM for 72 hours. Cell viability is then assessed using the ATP-lite reagent (Perkin Elmer, Foster City, Calif.). Plates are read on a Wallac Topcount luminescence reader (Perkin Elmer, Foster City, Calif.) and the results graphed in Prism software (Graphpad Software, Inc., San Diego, Calif.). Non-linear regression with variable slope analysis is performed to obtain IC50 concentration values.

Structure (SMILES) | IC50 [1] | IC50 [2]
COc1ccc(N(C)c2nc(C)ncc2NS(=O)(=O)c2ccc(OC)cc2)cc1 [Example 12, 4-Methoxy-N-{4-[(4-methoxyphenyl)-methylamino]-2-methyl-pyrimidin-5-yl)-benzenesulfonamide] | 57 nM | 62 nM
COc1ccc(N(C)c2cc(-c3ccccc3)nc(C)n2)cc1 [Example 10] | 1600 nM | 800 nM
COc1ccc(S(=O)(=O)Nc2cnc(C)nc2N(C)c2ccc(O)cc2)cc1 [Example 13, N-{4-[(4-hydroxyphenyl)-methylamino]-2-methyl-pyrimidin-5-yl)-4-methyoxy-benzenesulfonamide] | 1400 nM | 7400 nM
COc1ccc(N(C)c2ccnc(N(C)C)n2)cc1 [Example 5, N^4-(4-Methoxyphenyl)-N^2,N^2,N^4-trimethylpyrimidine-2,4-diamine] | 7900 nM | 6200 nM
COc1ccc(N(C)c2cc(C)nc(N(C)C)n2)cc1 [Example 4, N^4-(4-Methoxyphenyl)-N^2,N^2,N^4,6-tetramethylpyrimidine-2,4-diamine] | 1060 nM | 1100 nM
COc1ccc(N(C)c2cc(Cl)nc(N)n2)cc1 [Example 8, 6-Chloro-N^4-(4-methoxyphenyl)-N^4-methylpyrimidine-2,4-diamine] | 1900 nM | 2400 nM
COc1ccc(N(C)c2cc(C)nc(C)n2)cc1 [Example 11, (2,6-dimethyl-pyrimidin-4-yl)-(4-methoxyphenyl)-methylamine] | 310 nM | 400 nM
COC(=O)c1cc(N(C)c2ccc(OC)cc2)nc(Cl)n1 [Example 2, Methyl 2-chloro-6-[(4-methoxyphenyl)(methyl)amino]pyrimidine-4-carboxylate] | 9000 nM | 
COc1ccc(N(C)c2cc(C)nc(C#N)n2)cc1 [Example 7, 4-[(4-Methoxyphenyl)(methyl)amino]-6-methylpyrimidine-2-carbonitrile] | 2500 nM | 3900 nM
COc1ccc(N(C)c2ccnc(CN)n2)cc1 [Example 9, 2-(Aminomethyl)-N-(4-methoxyphenyl)-N-methylpyrimidin-4-amine] | 1900 nM | 3100 nM
COc1ccc(N(C)c2ccnc(Cl)n2)cc1 [Example 1, (2-Chloro-pyrimidin-4-yl)-(4-methoxyphenyl)-methyl amine] | 280 nM | 480 nM
CCOC(=O)c1cnc(SC)nc1N(C)c1ccc(OC)cc1 [Example 3, Ethyl 4-[(4-methoxyphenyl)(methyl)amino]-2-(methylthio)pyrimidine-5-carboxylate] | 54 nM | 78 nM
COc1ccc(N(C)c2ccnc(C#N)n2)cc1 [Example 6, 4-[(4-Methoxyphenyl)(methyl)amino]pyrimidine-2-carbonitrile] | 6800 nM | 

— US20090280133A1, “PHARMACEUTICAL COMPOUNDS AS INHIBITORS OF CELL PROLIFERATION AND THE USE THEREOF” (Myriad Genetics, Incorporated, priority 2006, published 2009)
